Results reported in patent US12655116B2, “Substituted isophthalic acid diamides” (Bayer Aktiengesellschaft, priority 2020, dated 2026).

Key:
CYPES = assay: Pre-emergence herbicidal action against CYPES; assay type: in vivo; conditions: Cyperus esculentus, 504 h
Excerpt: Seeds of monocotyledonous and dicotyledonous weed plants and crop plants are laid out in sandy loam soil in wood-fiber pots and covered with soil. The compounds of the invention, formulated in the form of wettable powders (WP) or as emulsion concentrates (EC), are then applied to the surface of the covering soil in the form of an aqueous suspension or emulsion at a water application rate equivalent to 600 to 800 l/ha, with addition of 0.2% wetting agent. After the treatment, the pots are placed in a greenhouse and kept under good growth conditions for the trial plants. The damage to the test plants is scored visually after a test period of 3 weeks by comparison with untreated controls (herbicidal activity in percent (%): 100% activity=the plants have died, 0% activity=like control plants). […] The tables below illustrate, in an illustrative manner, the post-emergence herbicidal action of the compounds of the invention, the herbicidal activity being stated in percent.

PHBPU = assay: Pre-emergence herbicidal action against PHBPU; assay type: in vivo, Pharbitis purpurea; conditions: Ipomoea purpurea, 504 h; for pest or weed control at 320 g/ha: dosage 320 g/ha; for pest or weed control at 80 g/ha: dosage 80 g/ha
Outline: (§1)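 Pre-emergence soil-surface spray of formulated compound (WP or EC; 600 to 800 l/ha; 0.2% wetting agent) over seeds sown in sandy loam. After 3 weeks under greenhouse conditions, damage is estimated visually in percent against untreated plants.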

ABUTH = assay: Post-emergence herbicidal action against ABUTH; assay type: in vivo, Abutilon theophrasti; conditions: Abutilon theophrasti, 504 h, visual assessment about 3 weeks after treatment vs untreated controls; for pest or weed control at 5 g/ha: dosage 5 g/ha; for pest or weed control at 20 g/ha: dosage 20 g/ha; for pest or weed control at 80 g/ha: dosage 80 g/ha
Outline: (§2)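 Spray, one-leaf stage: WP or EC compound in water, 600–800 l/ha, 0.2% wetting agent. Plants held about 3 weeks in the greenhouse, then visually rated in percent of kill compared with untreated controls.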

VERPE = assay: Post-emergence herbicidal action against VERPE; assay type: in vivo, Veronica persica; conditions: Veronica persica, 504 h
Outline: as §2

VIOTR = assay: Pre-emergence herbicidal action against VIOTR; assay type: in vivo, Viola tricolor; conditions: Viola tricolor, 504 h; for pest or weed control at 80 g/ha: dosage 80 g/ha; for pest or weed control at 320 g/ha: dosage 320 g/ha; for pest or weed control at 20 g/ha: dosage 20 g/ha
Outline: as §1

POLCO = assay: Pre-emergence herbicidal action against POLCO; assay type: in vivo, Polygonum convolvulus; conditions: Fallopia convolvulus, 504 h; for pest or weed control at 320 g/ha: dosage 320 g/ha; for pest or weed control at 80 g/ha: dosage 80 g/ha; for pest or weed control at 20 g/ha: dosage 20 g/ha
Outline: as §1

DIGSA [1] = assay: Pre-emergence herbicidal action against DIGSA; assay type: in vivo, Digitaria sanguinalis; conditions: Digitaria sanguinalis, 504 h; for pest or weed control at 80 g/ha: dosage 80 g/ha; for pest or weed control at 320 g/ha: dosage 320 g/ha; for pest or weed control at 20 g/ha: dosage 20 g/ha
Outline: as §1

DIGSA [2] = assay: Post-emergence herbicidal action against DIGSA; assay type: in vivo, Digitaria sanguinalis; conditions: Digitaria sanguinalis, 504 h
Outline: as §2

harmful plants = assay: Comparative experiments: herbicidal post-emergence action versus compounds known from D1 (WO 2012/028579 A1); assay type: in vivo; set-up: key to Herbicidal action against ALOMY / Herbicidal action against AVEFA / Herbicidal action against LOLRI / Herbicidal action against MATIN / Herbicidal action against HORMU / Herbicidal action against ECHCG / Herbicidal action against SETVI / Herbicidal action against ABUTH / Herbicidal action against STEME / Herbicidal action against VIOTR / Herbicidal action against AMARE: % herbicidal action: 100 = plants died, 0 = like untreated control; conditions: 20 g a.i./ha
Description: Seeds of monocotyledonous and dicotyledonous weed and crop plants are laid out in sandy loam soil in wood-fiber pots, covered with soil and cultivated in a greenhouse under good growth conditions. 2 to 3 weeks after sowing, the test plants are treated at the one-leaf stage. The compounds of the invention, formulated in the form of wettable powders (WP) or as emulsion concentrates (EC), are then sprayed onto the green parts of the plants in the form of an aqueous suspension or emulsion at a water application rate equivalent to 600 to 800 l/ha, with addition of 0.2% wetting agent. After the test plants have been left to stand in the greenhouse under optimal growth conditions for about 3 weeks, the action of the preparations is assessed visually in comparison to untreated controls (herbicidal action in percent (%): 100% activity=the plants have died, 0% activity=like control plants). […] The tables below illustrate, in an illustrative manner, the post-emergence herbicidal action of the compounds of the invention, the herbicidal activity being stated in percent. In the experiments that follow, herbicidal action of numerous inventive compounds and the structurally closest compounds known from D1 (WO 2012/028579 A1) were compared under the above-specified conditions by the pre-emergence and post-emergence method. The example numbers given in the tables relate to the compounds disclosed in the respective documents.

| SMILES | pest or weed control at 5 g/ha (ABUTH) [%] | pest or weed control at 20 g/ha (ABUTH) [%] | pest or weed control at 80 g/ha (ABUTH) [%] | pest or weed control at 20 g/ha (VERPE) [%] | pest or weed control at 80 g/ha (VERPE) [%] | pest or weed control at 80 g/ha (VIOTR) [%] | pest or weed control at 320 g/ha (VIOTR) [%] | pest or weed control at 320 g/ha (POLCO) [%] | pest or weed control at 80 g/ha (DIGSA [1]) [%] | pest or weed control at 320 g/ha (DIGSA [1]) [%] | pest or weed control at 20 g/ha (DIGSA [2]) [%] | pest or weed control at 80 g/ha (DIGSA [2]) [%] | pest or weed control at 20 g/ha (DIGSA [1]) [%] | also measured |
| --- | --- | --- | --- | --- | --- | --- | --- | --- | --- | --- | --- | --- | --- | --- |
| CCn1nnnc1NC(=O)c1ccc(C(F)(F)F)c(C(N)=O)c1Cl [Example 2-338] | 100 | 100 | 100 | 90 | 100 | 100 | 100 | 90 |  |  |  |  |  | pest or weed control at 80 g/ha (CYPES; 80 g/ha, scored visually after 3 weeks, 100% = plants have died, 0% = like control plants): 90%; pest or weed control at 320 g/ha (CYPES; 320 g/ha): 100%; pest or weed control at 320 g/ha (PHBPU): 80% |
| CCn1nnnc1NC(=O)c1ccc(C(F)F)c(C(=O)NC)c1Cl [Example 2-147] |  | 90 | 90 | 80 | 90 | 100 | 100 | 80 | 100 | 100 | 90 | 90 |  | Herbicidal action against ALOMY (harmful plants): 80; Herbicidal action against AVEFA (harmful plants): 90; Herbicidal action against HORMU (harmful plants; HORMU): 80; Herbicidal action against LOLRI (harmful plants; LOLRI): 70; Herbicidal action against MATIN (harmful plants): 100; Herbicidal action against PHBPU (harmful plants): 70 |
| CCc1c(C(=O)Nc2nnnn2C)ccc(C(F)(F)F)c1C(=O)NC1CC1 [Example 1-273] | 90 | 90 |  | 90 |  | 100 |  |  | 100 |  | 90 |  | 100 | pest or weed control at 80 g/ha (PHBPU): 100%; pest or weed control at 5 g/ha (DIGSA [2]): 90%; pest or weed control at 20 g/ha (VIOTR): 100%; pest or weed control at 80 g/ha (POLCO): 90% |
| CCn1nnnc1NC(=O)c1ccc(C(F)(F)F)c(C(=O)NC)c1SC [Example 2-81] |  | 90 | 90 | 80 | 90 | 90 | 100 | 100 | 100 | 100 | 90 | 90 |  |  |
| CNC(=O)c1c(C(F)F)ccc(C(=O)Nc2nnnn2C)c1Cl [Example 1-147] |  | 90 | 90 | 90 | 90 | 100 | 100 | 90 | 100 | 100 | 90 | 90 |  | Herbicidal action against ALOMY (harmful plants): 80; Herbicidal action against AVEFA (harmful plants): 90; Herbicidal action against MATIN (harmful plants): 100; Herbicidal action against PHBPU (harmful plants): 80; Herbicidal action against POLCO (harmful plants; POLCO): 90; Herbicidal action against VIOTR (harmful plants; VIOTR): 70 |
| CCNC(=O)c1c(C(F)(F)F)ccc(C(=O)Nc2nnnn2CC)c1SC [Example 2-82] |  | 90 | 90 | 80 | 90 | 100 | 100 | 90 | 100 | 100 | 90 | 90 |  |  |
| CNC(=O)c1c(C(F)(F)F)ccc(C(=O)Nc2nnnn2C)c1SC [Example 1-81] |  | 80 | 90 | 80 | 90 | 90 | 100 |  | 100 | 100 | 80 | 90 |  |  |
| CCn1nnnc1NC(=O)c1ccc(Cl)c(C(=O)NC2CC2)c1Cl [Example 2-173] | 90 | 100 |  | 80 |  | 100 |  |  | 100 |  | 80 |  | 100 | pest or weed control at 80 g/ha (PHBPU): 90%; pest or weed control at 20 g/ha (POLCO): 90%; pest or weed control at 80 g/ha (POLCO): 100% |
| CCNC(=O)c1c(C(F)F)ccc(C(=O)Nc2nnnn2C)c1Cl [Example 1-148] |  | 90 | 90 | 80 | 80 | 100 | 100 | 80 | 100 | 100 | 90 | 90 |  |  |
| CCn1nnnc1NC(=O)c1ccc(C(F)(F)F)c(C(=O)NC2CC2)c1C [Example 2-27] | 100 | 100 |  | 80 |  | 100 |  |  | 100 |  | 100 |  | 100 | pest or weed control at 20 g/ha (PHBPU; dosage 20 g/ha): 80%; pest or weed control at 80 g/ha (PHBPU): 90%; pest or weed control at 5 g/ha (DIGSA [2]): 100%; pest or weed control at 20 g/ha (VIOTR): 100%; pest or weed control at 20 g/ha (POLCO): 80%; pest or weed control at 80 g/ha (POLCO): 100% |
| CCNC(=O)c1c(C(F)F)ccc(C(=O)Nc2nnnn2CC)c1Cl [Example 2-148] |  | 90 | 90 | 80 | 90 | 100 | 100 | 100 | 100 | 100 | 90 | 90 |  |  |
| CCn1nnnc1NC(=O)c1ccc(C(F)(F)F)c(C(=O)NC(C)=O)c1Cl [Example 2-337] |  | 100 | 100 | 100 | 100 | 100 | 100 | 80 | 100 | 100 |  | 90 | 90 | pest or weed control at 320 g/ha (PHBPU): 90%; pest or weed control at 5 g/ha (VERPE; 5 g/ha): 80%; pest or weed control at 20 g/ha (VIOTR): 90% |
